Values joined by “and” are separate entries in the source; they are usually repeats but may differ in a detail not shown here. Equal values may be shown once. Toxic doses and inconclusive results are not listed. How the source made its calls: active means survival T/C of 150% or more; inactive means T/C below 125% in these data.
Tested on: B6C3F1 mice, ip Sarcoma M5076, median survival T/C
Test: NCI In Vivo Anticancer Drug Screen. Data for tumor model Sarcoma M5076 (intraperitoneal) in B6C3F1 mice
Conditions: endpoint: median survival time, higher = longer survival
Procedure: The antitumor activity of compounds was measured in mice bearing transplantable tumors. Survival or tumor size were measured and the results are expressed as the measurement made in the treated group (T) divided by the measurement made in the vehicle treated control group (C). The tumor model used in this assay is Sarcoma M5076 (intraperitoneal) in B6C3F1 mice

[1] = dose: 25.0 mg/kg/injection, schedule: Q04DX004 (ip), vehicle: saline with Tween-80
[2] = dose: 50.0 mg/kg/injection, schedule: Q04DX004 (ip), vehicle: saline with Tween-80
[3] = dose: 100.0 mg/kg/injection, schedule: Q04DX004 (ip), vehicle: saline with Tween-80
[4] = dose: 25.0 mg/kg/injection, schedule: Q04DX004 (ip), vehicle: saline
[5] = dose: 25.0 mg/kg/injection, schedule: Q04DX004 (ip), vehicle: suspension in saline
[6] = dose: 50.0 mg/kg/injection, schedule: Q04DX004 (ip), vehicle: saline
[7] = dose: 100.0 mg/kg/injection, schedule: Q04DX004 (ip), vehicle: suspension in saline
[8] = dose: 37.5 mg/kg/injection, schedule: Q04DX004 (ip), vehicle: Klucel (hydroxypropylcellulose) (HPC)
[9] = dose: 75.0 mg/kg/injection, schedule: Q04DX004 (ip), vehicle: Klucel (hydroxypropylcellulose) (HPC)
[10] = dose: 150.0 mg/kg/injection, schedule: Q04DX004 (ip), vehicle: Klucel (hydroxypropylcellulose) (HPC)
[11] = dose: 300.0 mg/kg/injection, schedule: Q04DX004 (ip), vehicle: Klucel (hydroxypropylcellulose) (HPC)
[12] = dose: 7.5 mg/kg/injection, schedule: Q04DX004 (ip), vehicle: Klucel (hydroxypropylcellulose) (HPC)
[13] = dose: 15.0 mg/kg/injection, schedule: Q04DX004 (ip), vehicle: Klucel (hydroxypropylcellulose) (HPC)
[14] = dose: 30.0 mg/kg/injection, schedule: Q04DX004 (ip), vehicle: Klucel (hydroxypropylcellulose) (HPC)
[15] = dose: 60.0 mg/kg/injection, schedule: Q04DX004 (ip), vehicle: Klucel (hydroxypropylcellulose) (HPC)
[16] = dose: 200.0 mg/kg/injection, schedule: Q04DX004 (ip), vehicle: saline with Tween-80
[17] = dose: 400.0 mg/kg/injection, schedule: Q04DX004 (ip), vehicle: saline with Tween-80

Measured: T/C

O=C(O)c1ccc(NC(=O)C2C(=O)C(=O)N(c3ccc(C(=O)O)cc3)C2=O)cc1 (centres undefined)
inactive: dose: 50.0 mg/kg/injection, schedule: Q04DX004 (ip), vehicle: Klucel + Tween-80 108 % of control | dose: 100.0 mg/kg/injection, schedule: Q04DX004 (ip), vehicle: Klucel + Tween-80 100 % of control | dose: 200.0 mg/kg/injection, schedule: Q04DX004 (ip), vehicle: Klucel + Tween-80 91 % of control | dose: 400.0 mg/kg/injection, schedule: Q04DX004 (ip), vehicle: Klucel + Tween-80 97 % of control

COc1cc2c(c3c1c(=O)c1cccc(F)c1n3C)C=CC(C)(C)O2
inactive: dose: 50.0 mg/kg/injection, schedule: Q04DX004 (ip), vehicle: Klucel (hydroxypropylcellulose) (HPC) 112 % of control | dose: 100.0 mg/kg/injection, schedule: Q04DX004 (ip), vehicle: Klucel (hydroxypropylcellulose) (HPC) 120 % of control

NCCSC(C[N+](=O)[O-])c1ccccc1Cl (centres undefined)
inactive: dose: 12.5 mg/kg/injection, schedule: Q04DX004 (ip), vehicle: saline with Tween-80 90 % of control and 100 % of control | [1] 92 % of control and 105 % of control | [2] 95 % of control and 98 % of control | [3] 109 % of control

O=C1NCC(Br)C(=O)N1 (centres undefined)
inactive: dose: 50.0 mg/kg/injection, schedule: Q04DX004 (ip), vehicle: saline + Tween-80 + alcohol 95 % of control | dose: 100.0 mg/kg/injection, schedule: Q04DX004 (ip), vehicle: saline + Tween-80 + alcohol 97 % of control | dose: 200.0 mg/kg/injection, schedule: Q04DX004 (ip), vehicle: saline + Tween-80 + alcohol 94 % of control | dose: 400.0 mg/kg/injection, schedule: Q04DX004 (ip), vehicle: saline + Tween-80 + alcohol 120 % of control

C/C(=N\NC(=O)c1ccccc1O)c1cccc(/C(C)=N/NC(=O)c2ccccc2O)n1
inactive: [4] 88 % of control | [5] 108 % of control | [6] 88 % of control | [7] 116 % of control

O=S(=O)(O)c1cc(N=C=S)ccc1/C=C/c1ccc(N=C=S)cc1S(=O)(=O)O
inactive: [4] 100 % of control | [6] 103 % of control | dose: 100.0 mg/kg/injection, schedule: Q04DX004 (ip), vehicle: saline 110 % of control | dose: 200.0 mg/kg/injection, schedule: Q04DX004 (ip), vehicle: saline 112 % of control

Nc1nc(=O)nc2[nH]c3c4cccc5cccc(c3nc12)c54 (tested in a mixture with another compound)
inactive: dose: 18.75 mg/kg/injection, schedule: Q04DX004 (ip), vehicle: Klucel (hydroxypropylcellulose) (HPC) 104 % of control | [8] 102 % of control | [9] 104 % of control | [10] 98 % of control | [11] 94 % of control

Clc1cccc2[nH]c(-c3ccncc3)nc12
inactive: dose: 37.5 mg/kg/injection, schedule: Q04DX004 (ip), vehicle: saline with Tween-80 104 % of control | dose: 75.0 mg/kg/injection, schedule: Q04DX004 (ip), vehicle: saline with Tween-80 111 % of control | dose: 150.0 mg/kg/injection, schedule: Q04DX004 (ip), vehicle: saline with Tween-80 98 % of control | dose: 300.0 mg/kg/injection, schedule: Q04DX004 (ip), vehicle: saline with Tween-80 105 % of control | dose: 600.0 mg/kg/injection, schedule: Q04DX004 (ip), vehicle: saline with Tween-80 100 % of control

COc1cc(C(=O)c2cc3c(cc2C)OCO3)cc(OC)c1OC
inactive: dose: 3.75 mg/kg/injection, schedule: Q04DX004 (ip), vehicle: Klucel (hydroxypropylcellulose) (HPC) 97 % of control | [12] 109 % of control | [13] 104 % of control | [14] 105 % of control | [8] 110 % of control | [15] 100 % of control | [9] 108 % of control and 114 % of control | [10] 113 % of control and 116 % of control | [11] 107 % of control

CCOC(=O)C1=C(Nc2ccc(OC)cc2)C(N)=NC1=N
inactive: dose: 12.5 mg/kg/injection, schedule: Q04DX004 (ip), vehicle: suspension in saline 102 % of control | [5] 100 % of control | [2] 101 % of control | dose: 50.0 mg/kg/injection, schedule: Q04DX004 (ip), vehicle: suspension in saline 111 % of control | [3] 99 % of control | [7] 101 % of control | [16] 102 % of control | dose: 200.0 mg/kg/injection, schedule: Q04DX004 (ip), vehicle: suspension in saline 105 % of control | [17] 106 % of control | dose: 800.0 mg/kg/injection, schedule: Q04DX004 (ip), vehicle: saline with Tween-80 101 % of control

O=C(Nc1ccccc1)c1cc2ccccc2oc1=O
inactive: dose: 28.13 mg/kg/injection, schedule: Q04DX004 (ip), vehicle: saline with Tween-80 94 % of control | dose: 56.25 mg/kg/injection, schedule: Q04DX004 (ip), vehicle: saline with Tween-80 92 % of control

CCOC(=O)CNCc1cc(=O)[nH]c2cc(Cl)ccc12
inactive: [1] 99 % of control | [2] 99 % of control | [3] 101 % of control | [16] 99 % of control | [17] 94 % of control

Cc1nnc2nc(N)[nH]n2c1=O
inactive: dose: 25.0 mg/kg/injection, schedule: Q04DX004 (ip), vehicle: water 97 % of control | dose: 50.0 mg/kg/injection, schedule: Q04DX004 (ip), vehicle: water 104 % of control | dose: 100.0 mg/kg/injection, schedule: Q04DX004 (ip), vehicle: water 96 % of control

NC(=O)C1=CC2C3C=CC2(O)C(=O)OC3O1 (centres undefined)
inactive: [12] 98 % of control | [13] 95 % of control | [14] 101 % of control | [15] 106 % of control

CC(=O)OCc1cc(=O)n(C)c2c3c4c(cc12)c(C)cc(=O)n4CO3
inactive: dose: 10.0 mg/kg/injection, schedule: Q04DX004 (ip), vehicle: Klucel (hydroxypropylcellulose) (HPC) 103 % of control | dose: 20.0 mg/kg/injection, schedule: Q04DX004 (ip), vehicle: Klucel (hydroxypropylcellulose) (HPC) 112 % of control | dose: 40.0 mg/kg/injection, schedule: Q04DX004 (ip), vehicle: Klucel (hydroxypropylcellulose) (HPC) 104 % of control | dose: 80.0 mg/kg/injection, schedule: Q04DX004 (ip), vehicle: Klucel (hydroxypropylcellulose) (HPC) 111 % of control

COc1ccc(-c2c(N3CCOCC3)oc3cc(N4CCOCC4)c(O)cc23)cc1
inactive: [2] 95 % of control | [3] 104 % of control | [16] 98 % of control | [17] 95 % of control

O=C1N[C@@H]2C(=C[C@H](O)[C@@H](O)[C@H]2O)c2cc3c(c(O)c21)OCO3
inactive: dose: 0.38 mg/kg/injection, schedule: Q01DX009 (ip), vehicle: saline with Tween-80 111 % of control | dose: 0.38 mg/kg/injection, schedule: Q04DX004 (ip), vehicle: saline with Tween-80 91 % of control | dose: 0.75 mg/kg/injection, schedule: Q04DX004 (ip), vehicle: saline with Tween-80 102 % of control and 110 % of control | dose: 1.5 mg/kg/injection, schedule: Q01DX009 (ip), vehicle: saline with Tween-80 123 % of control | dose: 1.5 mg/kg/injection, schedule: Q04DX004 (ip), vehicle: saline with Tween-80 96 % of control and 119 % of control | dose: 3.0 mg/kg/injection, schedule: Q04DX004 (ip), vehicle: saline with Tween-80 107 % of control

Source: PubChem BioAssay AID292 (DTP/NCI, 2004)
